We go through 25 compounds from US10435399B2, “HDAC6 inhibitory heterocyclic compound” (TAKEDA PHARMACEUTICAL COMPANY LIMITED, priority 2017, dated 2019).

The target in the assay is T1, HDAC6 enzyme (Homo sapiens, UniProt Q9UBN7).
T1 construct: transducing full length HDAC6 gene into Sf-9 insect cells; GST; purchased SignalChem; host or cells: Sf-9 insect cells
T1 sequence (Q9UBN7 1-1215): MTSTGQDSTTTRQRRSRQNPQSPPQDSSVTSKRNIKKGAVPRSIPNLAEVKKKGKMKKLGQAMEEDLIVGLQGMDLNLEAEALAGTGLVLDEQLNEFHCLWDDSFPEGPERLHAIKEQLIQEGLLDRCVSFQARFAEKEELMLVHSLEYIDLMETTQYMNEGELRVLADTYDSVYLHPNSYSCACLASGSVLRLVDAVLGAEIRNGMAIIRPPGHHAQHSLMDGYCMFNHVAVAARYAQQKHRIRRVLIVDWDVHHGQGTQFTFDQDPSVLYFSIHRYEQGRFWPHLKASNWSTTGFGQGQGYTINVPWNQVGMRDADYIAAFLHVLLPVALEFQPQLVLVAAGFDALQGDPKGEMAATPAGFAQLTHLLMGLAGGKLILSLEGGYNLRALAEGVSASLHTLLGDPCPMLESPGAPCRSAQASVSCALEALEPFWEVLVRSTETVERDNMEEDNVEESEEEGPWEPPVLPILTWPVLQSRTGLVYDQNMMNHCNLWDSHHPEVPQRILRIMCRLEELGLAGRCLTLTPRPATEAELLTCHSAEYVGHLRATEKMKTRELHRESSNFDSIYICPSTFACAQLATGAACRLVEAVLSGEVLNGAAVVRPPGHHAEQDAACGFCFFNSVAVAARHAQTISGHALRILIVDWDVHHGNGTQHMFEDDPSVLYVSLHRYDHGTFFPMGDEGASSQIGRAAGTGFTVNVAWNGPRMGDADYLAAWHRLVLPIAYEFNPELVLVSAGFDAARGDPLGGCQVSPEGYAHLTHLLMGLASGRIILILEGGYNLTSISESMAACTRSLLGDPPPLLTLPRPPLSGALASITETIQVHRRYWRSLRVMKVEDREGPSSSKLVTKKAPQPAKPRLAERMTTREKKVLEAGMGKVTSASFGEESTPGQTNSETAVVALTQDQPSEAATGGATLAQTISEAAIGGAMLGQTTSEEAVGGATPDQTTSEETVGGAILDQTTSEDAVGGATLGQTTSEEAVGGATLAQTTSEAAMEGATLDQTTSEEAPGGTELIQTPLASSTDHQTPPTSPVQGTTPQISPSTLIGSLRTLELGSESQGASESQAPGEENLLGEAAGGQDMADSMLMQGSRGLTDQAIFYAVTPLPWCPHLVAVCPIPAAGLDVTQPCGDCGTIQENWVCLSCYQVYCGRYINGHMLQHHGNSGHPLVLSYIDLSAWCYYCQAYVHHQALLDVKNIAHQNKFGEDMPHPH
The assay can be described thus: HDAC6 enzyme inhibitory activity (HDAC-Glo I/II Assay kit). The assay is classed as biochemical. To be noted: 10 μM; wells without enzyme = 100% inhibition; read-out: HDAC6 inhibitory rate (%) (10 μM). In a few lines:
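Luminescence read-out after 20 min reaction with HDAC-Glo substrate-developer, following 60 min room-temperature preincubation of compound with Sf-9-expressed, GST-purified full-length enzyme. Inhibition is relative to no-enzyme wells set as 100%.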
Take `O=C1c2cc(-c3nnc(C(F)F)o3)cnc2CN1Cc1ccccc1OC(F)(F)F` [Example 437, 3-(5-(difluoro-methyl)-1,3,4-oxadiazol-2-yl)-6-(2-(trifluoro-methoxy)benzyl)-6,7-dihydro-5H-pyrrolo [3,4-b]pyridin-5-one]: the inhibition at 10 µM stood at 101%.
Then `Cn1cccc1CN1Cc2ncc(-c3nnc(C(F)F)o3)cc2C1=O` [Example 438, 3-(5-(difluoro-methyl)-1,3,4-oxadiazol-2-yl)-6-((1-methyl-1H-pyrrol-2-yl)methyl)-6,7-dihydro-5H-pyrrolo [3,4-b]pyridin-5-one], with 97%; and `O=C1CCCN1c1cc(F)ccc1N1Cc2ccc(-c3nnc(C(F)F)o3)cc2C1=O` [Example 439, 6-(5-(difluoro-methyl)-1,3,4-oxadiazol-2-yl)-2-(4-fluoro-2-(2-oxo-pyrrolidin-1-yl)phenyl) isoindolin-1-one], with 99%; and `O=C1c2cc(-c3nnc(C(F)F)o3)cnc2CN1Cc1nccs1` [Example 440, 3-(5-(difluoro-methyl)-1,3,4-oxadiazol-2-yl)-6-(1,3-thiazol-2-ylmethyl)-6,7-dihydro-5H-pyrrolo [3,4-b]pyridin-5-one], with 97%.
Turning to `O=C1c2cc(-c3nnc(C(F)F)o3)cnc2CN1Cc1ccccc1Br` [Example 441, 6-(2-bromo-benzyl)-3-(5-(difluoro-methyl)-1,3,4-oxadiazol-2-yl)-6,7-dihydro-5H-pyrrolo [3,4-b]pyridin-5-one], the inhibition at 10 µM is 99%.
For `Cn1ccc(N2Cc3ccc(-c4nnc(C(F)F)o4)cc3C2=O)n1` [Example 442, 6-(5-(difluoro-methyl)-1,3,4-oxadiazol-2-yl)-2-(1-methyl-1H-pyrazol-3-yl)isoindolin-1-one], the inhibition at 10 µM is 94%.
For `N#Cc1ccc(N2Cc3ccc(-c4nnc(C(F)F)o4)cc3C2=O)c(-c2ccccc2)c1` [Example 443, 6-(6-(5-(difluoro-methyl)-1,3,4-oxadiazol-2-yl)-1-oxo-1,3-dihydro-2H-isoindol-2-yl) biphenyl-3-carbonitrile], the inhibition at 10 µM amounted to 100%.
On to `N#Cc1ccc(N2Cc3ccc(-c4nnc(C(F)F)o4)cc3C2=O)c(-c2cnn(C(F)F)c2)c1` [Example 444, 4-(6-(5-(difluoro-methyl)-1,3,4-oxadiazol-2-yl)-1-oxo-1,3-dihydro-2H-isoindol-2-yl)-3-(1-(difluoro-methyl)-1H-pyrazol-4-yl) benzonitrile], for which the inhibition at 10 µM came to 100%.
With `N#Cc1ccc(N2Cc3ccc(-c4nnc(C(F)F)o4)cc3C2=O)c(-c2cccc(F)c2)c1` [Example 445, 6-(6-(5-(difluoro-methyl)-1,3,4-oxadiazol-2-yl)-1-oxo-1,3-dihydro-2H-isoindol-2-yl)-3′-fluoro-biphenyl-3-carbonitrile], the inhibition at 10 µM was determined as 100%.
For `Cn1cc(C2CCOCC2)c(N2Cc3ccc(-c4nnc(C(F)F)o4)cc3C2=O)n1` [Example 446, 6-(5-(difluoro-methyl)-1,3,4-oxadiazol-2-yl)-2-(1-methyl-4-(tetrahydro-2H-pyran-4-yl)-1H-pyrazol-3-yl) isoindolin-1-one], the inhibition at 10 µM was found to be 100%.
Regarding `COc1cccc(-c2cn(C)nc2N2Cc3ccc(-c4nnc(C(F)F)o4)cc3C2=O)c1` [Example 447, 6-(5-(difluoro-methyl)-1,3,4-oxadiazol-2-yl)-2-(4-(3-methoxy-phenyl)-1-methyl-1H-pyrazol-3-yl) isoindolin-1-one], the inhibition at 10 µM came out at 100%.
Then `Cn1cc(C2=CCOCC2)c(N2Cc3ccc(-c4nnc(C(F)F)o4)cc3C2=O)n1` [Example 448, 6-(5-(difluoro-methyl)-1,3,4-oxadiazol-2-yl)-2-(4-(3,6-dihydro-2H-pyran-4-yl)-1-methyl-1H-pyrazol-3-yl) isoindolin-1-one], with 100%.
To `CC(=O)N[C@@H]1CCCC[C@H]1N1Cc2ncc(-c3nnc(C(F)F)o3)cc2C1=O` [Example 449, N-((1R,2R)-2-(3-(5-(difluoro-methyl)-1,3,4-oxadiazol-2-yl)-5-oxo-5,7-dihydro-6H-pyrrolo[3,4-b]pyridin-6-yl)cyclohexyl) acetamide] belongs 100%; to `O=C1c2cc(-c3nnc(C(F)F)o3)ccc2CN1c1ccc(F)cc1-n1cc(C(F)(F)F)cn1` [Example 450, 6-(5-(difluoro-methyl)-1,3,4-oxadiazol-2-yl)-2-(4-fluoro-2-(4-(trifluoro-methyl)-1H-pyrazol-1-yl)phenyl) isoindolin-1-one], 100%.
With `O=C1c2cc(-c3nnc(C(F)F)o3)ccc2CN1c1ccc(F)cc1-n1cc(Cl)cn1` [Example 451, 2-(2-(4-chloro-1H-pyrazol-1-yl)-4-fluoro-phenyl)-6-(5-(difluoro-methyl)-1,3,4-oxadiazol-2-yl) isoindolin-1-one], the inhibition at 10 µM was determined as 98%.
In the case of `O=C1c2cc(-c3nnc(C(F)F)o3)ccc2CN1c1ccc(F)cc1-n1cc(F)cn1` [Example 452, 6-(5-(difluoromethyl)-1,3,4-oxadiazol-2-yl)-2-(4-fluoro-2-(4-fluoro-1H-pyrazol-1-yl)phenyl)isoindolin-1-one], the inhibition at 10 µM came out at 99%.
To `O=C1c2cc(-c3nnc(C(F)F)o3)ccc2CN1c1ccnn1-c1cccc(F)c1` [Example 453, 6-(5-(difluoro-methyl)-1,3,4-oxadiazol-2-yl)-2-(1-(3-fluoro-phenyl)-1H-pyrazol-5-yl) isoindolin-1-one] belongs 99%.
Take `O=C1c2cc(-c3nnc(C(F)F)o3)cnc2CN1Cc1ccc(Cl)s1` [Example 454, 6-((5-chloro-2-thienyl)methyl)-3-(5-(difluoro-methyl)-1,3,4-oxadiazol-2-yl)-6,7-dihydro-5H-pyrrolo [3,4-b]pyridin-5-one]: the inhibition at 10 µM came out at 101%.
Take `Cn1cc(-c2cc(F)cc(F)c2)c(N2Cc3ccc(-c4nnc(C(F)F)o4)cc3C2=O)n1` [Example 455, 6-(5-(difluoro-methyl)-1,3,4-oxadiazol-2-yl)-2-(4-(3,5-difluoro-phenyl)-1-methyl-1H-pyrazol-3-yl) isoindolin-1-one]: the inhibition at 10 µM is 102%.
On to `CCOc1ccccc1CN1Cc2ncc(-c3nnc(C(F)F)o3)cc2C1=O` [Example 456, 3-(5-(difluoro-methyl)-1,3,4-oxadiazol-2-yl)-6-(2-ethoxy-benzyl)-6,7-dihydro-5H-pyrrolo[3,4-b] pyridin-5-one], for which the inhibition at 10 µM was 100%.
To `O=C1c2cc(-c3nnc(C(F)F)o3)cnc2CN1Cc1cc2ccccn2n1` [Example 457, 3-(5-(difluoro-methyl)-1,3,4-oxadiazol-2-yl)-6-(pyrazolo [1,5-a]pyridin-2-ylmethyl)-6,7-dihydro-5H-pyrrolo [3,4-b] pyridin-5-one] belongs 97%.
To `O=C1c2cc(-c3nnc(C(F)F)o3)cnc2CN1Cc1cnn2ccccc12` [Example 458, 3-(5-(difluoro-methyl)-1,3,4-oxadiazol-2-yl)-6-(pyrazolo [1,5-a]pyridin-3-ylmethyl)-6,7-dihydro-5H-pyrrolo [3,4-b] pyridin-5-one] belongs 100%; to `Cn1cc(-c2cncc(F)c2)c(N2Cc3ccc(-c4nnc(C(F)F)o4)cc3C2=O)n1` [Example 459, 6-(5-(difluoro-methyl)-1,3,4-oxadiazol-2-yl)-2-(4-(5-fluoro-pyridin-3-yl)-1-methyl-1H-pyrazol-3-yl) isoindolin-1-one], 97%.
For the compound `Cn1cc(-c2ccccc2F)c(N2Cc3ccc(-c4nnc(C(F)F)o4)cc3C2=O)n1` [Example 460, 6-(5-(difluoro-methyl)-1,3,4-oxadiazol-2-yl)-2-(4-(2-fluoro-phenyl)-1-methyl-1H-pyrazol-3-yl) isoindolin-1-one], the inhibition at 10 µM was determined as 102%.
Then `CCC(=O)N[C@@H]1CCCC[C@H]1N1Cc2ncc(-c3nnc(C(F)F)o3)cc2C1=O` [Example 461, N-((1R,2R)-2-(3-(5-(difluoro-methyl)-1,3,4-oxadiazol-2-yl)-5-oxo-5,7-dihydro-6H-pyrrolo[3,4-b]pyridin-6-yl)cyclohexyl) propanamide], with 100%.
